Measurements from patent EP0429372A1, “2-Azolyl nicotinate derivatives as herbicides” (RHONE-POULENC AGROCHIMIE, priority 1989, dated 1991).

Columns and labels:
Assay type in all cases: in vivo
[1] = test system: Ipomea purpurea; test: Example B: post-emergence herbicidal application, pot test
From the text: (§1) Dans des pots de 7 x 7 x 8 cm remplis de terre agricole légère, on sème un nombre de graines déterminé en fonction de l'espèce végétale et de la grosseur de la graine.
(§2) On recouvre ensuite les graines d'une couche de terre d'environ 3 mm d'épaisseur et on laisse germer la graine jusqu'à ce qu'elle donne naissance à une plantule au stade convenable. Le stade de traitement pour les graminées est le stade "deuxième feuille en formation ". Le stade de traitement pour les dicotylédones, est le stade "cotylédons étalés, première feuille vraie en développement".
(§3) Les pots sont alors traités par pulvérisation de bouillie en quantité correspondant à une dose volumique d'application de 500 l/ha et contenant la matière active à la concentration désirée.
(§4) La bouille a été préparée de la même manière qu'à l'exemple A.
(§5) Les pots traités sont ensuite placés dans des bacs destinés à recevoir l'eau d'arrosage, en subirrigation, et maintenus pendant 24 jours à température ambiante sous 70 % d'humidité relative.
(§6) Au bout de 24 jours, on mesure un pourcentage (D) de destruction du nombre de pieds dans le pot traité par rapport au nombre de plantes dans les pots non traités (témoin). On mesure, sur les plantes traitées restantes, le pourcentage de réduction de taille (RT) par rapport aux plantes témoin.
(§7) Le pourcentage du volume foliaire non détruit par le produit est donc donné par la formule : [formula]
(§8) Cette valeur A est transformée en notation de 0 à 5 selon l'échelle suivante :
(§9) Les résultats obtenus sont présentés après le tableau A pour des doses d'application de 4000 g/ha.

[2] = test system: Solanum nigrum; test: as above
From the text: as §1, §2, §3, §4, §5, §6, §7, §8, §9

[3] = test system: Sinapis alba; test: as above
From the text: as §1, §2, §3, §4, §5, §6, §7, §8, §9

[4] = test system: Digitaria sanguinalis; test: as above
From the text: as §1, §2, §3, §4, §5, §6, §7, §8, §9

[5] = test system: Lolium multiflorum; test: as above; details: 4 kg/ha, rated after 24 days, score 0-5 from % leaf volume not destroyed
From the text: as §1, §2, §3, §4, §5, §6, §7, §8, §9

[6] = test system: Ipomea pupurea; test: Example C: selectivity test in major crops, post-emergence application
From the text: as §1
as §2, with “formation".” for “formation ".”
as §3
(§10) La bouillie a été préparée de la même manière qu'à l'exemple A.
as §5, §6
(§11) Le pourcentage de volume foliaire non détruit par le produit est donc donné par la formule : [formula]
as §8
(§12) Ainsi, un produit est jugé comme sélectif vis à vis de la culture lorsque la valeur A notée est de 0 ou 1.
(§13) Les résultats obtenus sont présentés dans l'exemple C pour des doses d'application comprises entre 0,5 et 4 kg de matière active par hectare selon les produits.

[7] = test system: Solanum nigrum; test: as above
From the text: as §1
as §2, with “formation".” for “formation ".”
as §3, §10, §5, §6, §11, §8, §12, §13

[8] = test system: Zea mays; test: as above; details: crop (Maïs), 24 days, score 0-5, 0 or 1 = selective; further: ranges in brackets are in %
From the text: as §1
as §2, with “formation".” for “formation ".”
as §3, §10, §5, §6, §11, §8, §12, §13

[9] = test system: Oryza sativa; test: as above; details: crop (Riz), 24 days, score 0-5, 0 or 1 = selective; further: ranges in brackets are in %
From the text: as §1
as §2, with “formation".” for “formation ".”
as §3, §10, §5, §6, §11, §8, §12, §13

[10] = test system: Sinapis alba; test: as above; details: weed, dose 2 kg/ha, 24 days, score 0-5
From the text: as §1
as §2, with “formation".” for “formation ".”
as §3, §10, §5, §6, §11, §8, §12, §13

[11] = test system: Sesbania exaltata; test: as above
From the text: as §1
as §2, with “formation".” for “formation ".”
as §3, §10, §5, §6, §11, §8, §12, §13

[12] = test system: Xanthium pennsylvanicum; test: as above
From the text: as §1
as §2, with “formation".” for “formation ".”
as §3, §10, §5, §6, §11, §8, §12, §13

[13] = test system: Triticum aestivum; test: as above; details: crop (Blé), 24 days, score 0-5, 0 or 1 = selective; further: ranges in brackets are in %
From the text: as §1
as §2, with “formation".” for “formation ".”
as §3, §10, §5, §6, §11, §8, §12, §13

[14] = test system: mauvaises herbes; test: Procedure 2 d): weed control, pre-emergence; details: 4000 g/ha (procédé 2D), visual rating 20 to 24 days after spraying, vs control pots
From the text: (§14) Des quantités appropriées des composés d'essai ont été dissoutes dans de l'acétone pour obtenir des solutions équivalant à des taux d'application de 250, 1000 ou 4000 g de composé d'essai par hectare (g/ha).
Les graines ont été semées dans des pots en matière plastique de 70 mm de côté et 75 mm de profondeur, dans de la terre non stérile provenant de Boarded Barns Farm ou un type de terre similaire provenant d'une source convenable. Les quantités de graines par pot étaient les suivantes :
Les composés de la présente invention ont été appliqués à la surface du sol, contenant les semences, de la manière décrite dans le paragraphe (a). Un seul pot de chaque plante cultivée et de chaque mauvaise herbe a été attribué à chaque traitement, en association avec des témoins n'ayant pas subi de pulvérisation et des témoins ayant subi une pulvérisation avec de l'acétone seule. Après traitement, les pots ont été maintenus dans une serre et ont été arrosés par aspersion pendant 3 jours, puis par une sous- irrigation controlée. L'évaluation visuelle des dégats infligés aux plantes cultivées a été effectuée 20 à 24 jours après pulvérisation. Les résultats ont été exprimés en pourcentage de réduction de croissance ou d'endommagement des plantes cultivées ou des mauvaises herbes, comparativement aux plantes présentes dans les pots témoins.

[15] = test system: mauvaises herbes; details: post-emergence, 4000 g/ha
From the text: as §14
Les mauvaises herbes et les plantes cultivées ont été semées directement dans du compost de mise en pot John Innes dans des pots de 75 mm de profondeur et 70 mm de côté, sauf en ce qui concerne l'espèce du genre Amaranthus qui a été repiquée au stade de jeunes plants de semis et transférée dans les pots une semaine avant plulvérisation. Puis les plantes ont été cultivées dans la serre jusqu'à ce qu'elles soient prêtres à subir une pulvérisation avec les composés d'essai. Le nombre de plantes par pot étaient les suivants :
Les composés d'essai ont été appliqués aux plantes de la manière décrite dans le paragraphe (a). Un seul pot de chaque espèce de plante cultivée et de chaque espèce de mauvaise herbe a été attribué à chaque traitement, en association avec des témoins n'ayant pas subi de pulvérisation et des témoins ayant subi une pulvérisation avec de l'acétone seule.
Après traitement, les pots ont été maintenus dans une serre et ont été arrosés une fois par aspersion au bout de 24 heures, puis par sous - irrigation contrôlée. L'évaluation visuelle des dégâts infligés aux plantes cultivées et de la destruction des mauvaises herbes a été effectué 20 à 24 jours après pulvérisation. Les résultats ont été exprimés en pourcentage de réduction de croissance ou d'endommagement des plantes cultivées ou des mauvaises herbes, comparativement aux plantes présentes dans les pots témoins.

[16] = test system: Echinochloa crusgalli; test: Example B: post-emergence herbicidal application, pot test; details: 4000 g/ha, 576 h
From the text: as §1, §2, §3, §4, §5, §6, §7, §8, §9

[17] = test system: Viola tricolor; test: Example C: selectivity test in major crops, post-emergence application; details: 1000 g/ha, 576 h
From the text: as §1
as §2, with “formation".” for “formation ".”
as §3, §10, §5, §6, §11, §8, §12, §13

[18] = test system: Convolvulus arvensis; details: post-emergence, 1000 g/ha, 576 h
From the text: as §1
as §2, with “formation".” for “formation ".”
as §3, §10, §5, §6, §11, §8, §12, §13

[19] = test system: Chrysanthemum segetum; details: post-emergence, 1000 g/ha, 576 h
From the text: as §1
as §2, with “formation".” for “formation ".”
as §3, §10, §5, §6, §11, §8, §12, §13

[20] = test system: Polygonum convolvulus; details: 1000 g/ha, 576 h
From the text: as §1
as §2, with “formation".” for “formation ".”
as §3, §10, §5, §6, §11, §8, §12, §13

[21] = 4 kg/ha, rated after 24 days, score 0-5 from % leaf volume not destroyed
[22] = weed, dose 2 kg/ha, 24 days, score 0-5

## CN(C)S(=O)(=O)n1nc(-c2ccccc2)nc1-c1ncccc1C(=O)O [compound 7, Acide 3 - (3 - carboxy 2 - pyridyl) 2 - N,N - diméthyl sulfamoyl 5 - phényl 1,2,4 -triazole]
[1]; [21]
  ACTIVITE DE POST-LEVEE IPO: 4 (10 à 30)
[2]; [21]
  ACTIVITE DE POST-LEVEE SOL: 5 (O à 10)
[3]; [21]
  ACTIVITE DE POST-LEVEE SIN: 5 (O à 10)
[4]; [21]
  ACTIVITE DE POST-LEVEE DIG: 1 (70 à 90)
[5]
  ACTIVITE DE POST-LEVEE LOL: 1 (70 à 90)
[6]; weed, post-emergence, dose 2 kg/ha, 24 days, score 0-5
  ACTIVITE HERBICIDE DE POST LEVEE I P O: 4 (10 à 30)
[7]; [22]
  ACTIVITE HERBICIDE DE POST LEVEE S O L: 4 (10 à 30)
[8]; dose 2 kg/ha
  ACTIVITE HERBICIDE DE POST LEVEE Z E A: 0 (90 à 100)
[9]; dose 2 kg/ha
  ACTIVITE HERBICIDE DE POST LEVEE O R Y: 0 (90 à 100)
[10]
  ACTIVITE HERBICIDE DE POST LEVEE S I N: 5 (O à 10)
[11]; [22]
  ACTIVITE HERBICIDE DE POST LEVEE S E S: 5 (O à 10)
[12]; [22]
  ACTIVITE HERBICIDE DE POST LEVEE X A N: 4 (10 à 30)
[13]; dose 2 kg/ha
  ACTIVITE HERBICIDE DE POST LEVEE T R Z: 0 (90 à 100)

## Cc1ccc(C(=O)O)c(-c2nc3ccccc3n2S(=O)(=O)N(C)C)n1 [compound 93]
[14]
  réduction de la croissance d'une ou plusieurs des espèces de mauvaises herbes: ≥ 90%
[15]
  destruction d'une ou plusieurs des espèces de mauvaises herbes: ≥ 90%

## CN(C)S(=O)(=O)n1c(-c2ncccc2C(=O)O)nc2cc(Cl)ccc21 [compound 84]
[1]; 4000 g/ha, 576 h
  ACTIVITE DE POST-LEVEE IPO: 3 (30 à 50)
[2]; 4000 g/ha, 576 h
  ACTIVITE DE POST-LEVEE SOL: 5 (O à 10)
[3]; 4000 g/ha, 576 h
  ACTIVITE DE POST-LEVEE SIN: 5 (O à 10)
[4]; 4000 g/ha, 576 h
  ACTIVITE DE POST-LEVEE DIG: 0 (90 à 100)
[16]
  ACTIVITE DE POST-LEVEE ECH: 0 (90 à 100)
[6]; 1000 g/ha, 576 h
  ACTIVITE HERBICIDE DE POST LEVEE I P O: 4 (10 à 30)
[7]; 1000 g/ha, 576 h
  ACTIVITE HERBICIDE DE POST LEVEE S O L: 5 (O à 10)
[8]; dose 1 kg/ha
  ACTIVITE HERBICIDE DE POST LEVEE Z E A: 1 (70 à 90)
[9]; dose 1 kg/ha
  ACTIVITE HERBICIDE DE POST LEVEE O R Y: 1 (70 à 90)
[17]
  ACTIVITE HERBICIDE DE POST LEVEE V I O: 2 (50 à 70)
[11]; 1000 g/ha, 576 h
  ACTIVITE HERBICIDE DE POST LEVEE S E S: 5 (O à 10)
[12]; 1000 g/ha, 576 h
  ACTIVITE HERBICIDE DE POST LEVEE X A N: 3 (30 à 50)
[13]; dose 1 kg/ha
  ACTIVITE HERBICIDE DE POST LEVEE T R Z: 1 (70 à 90)
[18]
  ACTIVITE HERBICIDE DE POST LEVEE C O N: 5 (O à 10)
[19]
  ACTIVITE HERBICIDE DE POST LEVEE C H Y: 5 (O à 10)
[20]
  ACTIVITE HERBICIDE DE POST LEVEE P O L: 4 (10 à 30)
